Experimental data reported in patent publication US10022459B2, “Medical tissue-marker and manufacturing method for the same” (NATIONAL UNIVERSITY CORPORATION CHIBA UNIVERSITY, priority 2011, dated 2018).

Key:
[1] = tested on: submucosal layer of the stomach wall of a pig; assay: Local injection into submucosal layer of the stomach wall of a pig, fluorescent laparoscope view from the outside of the stomach; format: in vivo
Experimental: Then, the fabricated clusters were injected into biological tissue and the result thereof was confirmed. Specifically, submucosal layer of the stomach wall of a pig was a most suitable target of the marker administration. The fluid dispersion of 300 μl, including the clusters, was administrated on four points surrounding a metal clip placed inside the stomach by local injection.
The left and middle panels show conventional and fluorescent laparoscopic images immediately after local injection, respectively. […] It was confirmed that the clusters were sufficiently stable at the injection points. […] In this case, the exact injection positions were unclear immediately after injection as well as 6 hours after injection.
Herein, the stability was again confirmed 24 hours after the local injection of the marker. The submucosal layer of the stomach wall was a most suitable target of the marker administration. The fluid dispersion of 300 μl including clusters was administrated at two points surrounding a metal clip by local injection. The pig recovered from general anesthesia after the administration. Twenty-four hours later, laparoscopy was performed again under general anesthesia.
The optimum injection amount of the marker was verified. When the concentration of the clusters according to the example 1 was 100 μl or more, the injection points could be confirmed. The concentration thereof was preferably 200 μl or more, and is more preferably 300 μl or more. In FIG. 17, 50 μl was used. In FIG. 18, 100 μl was used. In FIG. 19, 200 μl was used. In FIG. 20, 300 μl was used.

stomach of the pig = assay: Fluorescence imaging (near-infrared LED light) of the excised pig stomach after marker administration; format: in vivo; details: 32 hours after administration, 300 μl each at four points
Experimental: Then, the stomach of the pig was excised, and fluorescence and X-ray CT imaging was performed 32 hours after the marker (300 μl each at four points around a metal clip) administration.

CC1(C)C(/C=C/C=C/C=C/C=C2\N(CCCCS(=O)(=O)O)c3ccc4ccccc4c3C2(C)C)=[N+](CCCCS(=O)(=O)[O-])c2ccc3ccccc3c21 [ICG aqueous solution, indocyanine green]
identification of injection points in fluorescent laparoscopic image ([1]; 6 hours after local injection, 300 μl at four points): unclear
distinguishability of four closely located injection points by fluorescent laparoscope ([1]; 18 hours after administration, 300 μl at four points): impossible to distinguish
identification of injection points in fluorescent laparoscopic image ([1]; immediately after local injection): unclear
fluorescence pattern at the injection site (stomach of the pig): broad diffusion of the fluorescence
